Measurements from ChEMBL document CHEMBL5131550, “Application of Rapidly Accelerating Fibrosarcoma Protein Degraders in Drug Discovery” (ACS Med Chem Lett, 2022).
pIC50: −log10 of the molar value.

Legend:
Assay type in all cases: cell-based
[1] = target: T1, RAF proto-oncogene serine/threonine-protein kinase (Homo sapiens, UniProt P04049); experiment: Inhibition of RAF in human WM3629 cells assessed as ERK phosphorylation at Thr202/Tyr204 residue incubated for 6 hrs by HTRF assay
[2] = target: T1, RAF proto-oncogene serine/threonine-protein kinase; experiment: Inhibition of RAF in human A-375 cells assessed as ERK phosphorylation at Thr202/Tyr204 residue incubated for 6 hrs by HTRF assay
[3] = target: Protein cereblon/Serine/threonine-protein kinase B-raf (Homo sapiens, UniProt P15056+Q96SW2, V600E); experiment: Protac activity at E3 ubiquitin-protein ligase/BRAF V600E mutant in human T-REx-293 cells assessed as BRAF degradation incubated for 24 hrs by plate reader assay
[4] = system: Protein cereblon/Serine/threonine-protein kinase B-raf (Homo sapiens), P15056+Q96SW2 [V600E]; experiment: Protac activity at E3 ubiquitin-protein ligase/BRAF V600E mutant in human T-REx-293 cells assessed as maximal BRAF degradation incubated for 24 hrs by plate reader assay
[5] = target: Protein cereblon/Serine/threonine-protein kinase B-raf (Homo sapiens, UniProt P15056+Q96SW2, G466V); experiment: Protac activity at E3 ubiquitin-protein ligase/BRAF G466V mutant in human T-REx-293 cells assessed as BRAF degradation incubated for 24 hrs by plate reader assay
[6] = system: Protein cereblon/Serine/threonine-protein kinase B-raf (Homo sapiens), P15056+Q96SW2 [G466V]; experiment: Protac activity at E3 ubiquitin-protein ligase/BRAF G466V mutant in human T-REx-293 cells assessed as maximal BRAF degradation incubated for 24 hrs by plate reader assay

T1 sequence (P04049 whole entry): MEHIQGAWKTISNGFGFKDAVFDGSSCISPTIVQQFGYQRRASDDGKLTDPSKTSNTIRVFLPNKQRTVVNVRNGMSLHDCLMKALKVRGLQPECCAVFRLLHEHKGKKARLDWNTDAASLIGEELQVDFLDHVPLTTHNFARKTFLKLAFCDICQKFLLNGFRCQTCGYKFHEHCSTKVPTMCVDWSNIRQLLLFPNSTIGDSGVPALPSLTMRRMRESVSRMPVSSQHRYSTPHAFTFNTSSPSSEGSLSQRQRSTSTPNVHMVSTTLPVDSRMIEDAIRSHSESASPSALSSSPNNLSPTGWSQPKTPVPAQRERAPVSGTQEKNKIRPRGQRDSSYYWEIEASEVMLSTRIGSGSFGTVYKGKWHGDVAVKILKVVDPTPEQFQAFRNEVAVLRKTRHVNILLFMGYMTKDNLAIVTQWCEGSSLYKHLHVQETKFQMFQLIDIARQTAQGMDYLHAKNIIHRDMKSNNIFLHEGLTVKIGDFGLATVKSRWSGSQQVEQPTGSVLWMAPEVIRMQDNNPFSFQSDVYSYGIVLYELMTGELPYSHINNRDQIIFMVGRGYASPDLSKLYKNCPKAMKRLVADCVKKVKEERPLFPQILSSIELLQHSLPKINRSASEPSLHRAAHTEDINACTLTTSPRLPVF
Chain of Protein cereblon/Serine/threonine-protein kinase B-raf (Homo sapiens, UniProt P15056+Q96SW2, V600E) (P15056 2-766 V600E limits assumed, stated change not applied): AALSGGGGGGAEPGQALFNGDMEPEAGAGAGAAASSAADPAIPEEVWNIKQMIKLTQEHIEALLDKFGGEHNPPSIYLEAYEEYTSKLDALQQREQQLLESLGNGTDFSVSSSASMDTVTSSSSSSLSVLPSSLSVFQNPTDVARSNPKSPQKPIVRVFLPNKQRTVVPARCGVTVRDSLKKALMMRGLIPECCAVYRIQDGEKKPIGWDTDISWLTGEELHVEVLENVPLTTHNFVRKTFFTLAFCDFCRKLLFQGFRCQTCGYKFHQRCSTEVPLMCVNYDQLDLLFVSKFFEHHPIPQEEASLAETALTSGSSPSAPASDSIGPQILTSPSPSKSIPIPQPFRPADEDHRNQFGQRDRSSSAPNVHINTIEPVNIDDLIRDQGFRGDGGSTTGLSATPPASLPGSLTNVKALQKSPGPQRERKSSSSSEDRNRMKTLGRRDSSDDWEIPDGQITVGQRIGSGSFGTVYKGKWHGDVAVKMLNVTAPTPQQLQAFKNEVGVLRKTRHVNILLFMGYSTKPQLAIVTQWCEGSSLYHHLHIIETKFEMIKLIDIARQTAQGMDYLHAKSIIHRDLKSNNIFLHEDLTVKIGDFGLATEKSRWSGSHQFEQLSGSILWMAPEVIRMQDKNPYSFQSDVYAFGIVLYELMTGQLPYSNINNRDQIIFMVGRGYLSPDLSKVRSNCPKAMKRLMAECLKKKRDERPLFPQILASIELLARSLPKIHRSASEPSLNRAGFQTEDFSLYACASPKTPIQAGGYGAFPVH
Chain of Protein cereblon/Serine/threonine-protein kinase B-raf (Homo sapiens, UniProt P15056+Q96SW2, V600E) (Q96SW2 whole entry, stated change not applied): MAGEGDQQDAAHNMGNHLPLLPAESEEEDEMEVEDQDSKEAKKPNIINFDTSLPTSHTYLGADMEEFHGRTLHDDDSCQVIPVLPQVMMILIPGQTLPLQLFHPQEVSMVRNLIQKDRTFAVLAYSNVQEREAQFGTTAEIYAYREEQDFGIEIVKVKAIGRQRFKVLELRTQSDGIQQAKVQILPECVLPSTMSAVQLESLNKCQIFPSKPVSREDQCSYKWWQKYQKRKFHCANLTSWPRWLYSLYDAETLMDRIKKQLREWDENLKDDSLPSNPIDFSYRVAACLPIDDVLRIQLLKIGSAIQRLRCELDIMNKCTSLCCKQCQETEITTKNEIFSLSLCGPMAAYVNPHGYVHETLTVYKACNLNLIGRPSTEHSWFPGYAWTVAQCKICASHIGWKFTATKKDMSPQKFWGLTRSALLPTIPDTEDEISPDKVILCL

Cc1ccc(NC(=O)N2CC[C@@H](CC(F)(F)F)C2)cc1-c1cnc(OCCN2CCN(c3ccc4c(c3)C(=O)N(C3CCC(=O)NC3=O)C4=O)CC2)c(N2CCOCC2)c1 (some centres not stated)
pIC50 [1]: 8.00 | pIC50 [2]: 7.00

O=C1CCC(N2Cc3cc(N4CCC(CN5CC6(CCN(c7ncc(-c8cnc9[nH]cc(C(=O)c%10c(F)ccc(NS(=O)(=O)N%11CC[C@@H](F)C%11)c%10F)c9c8)cn7)C6)C5)CC4)ccc3C2=O)C(=O)N1 (some centres not stated)
DC50 [3]: ≤ 5 nM | Emax [4]: 35% | DC50 [5]: 1 nM | Emax [6]: > 70%

COc1cc(N2CCC(CN3CCC4(CC3)CCN(c3ccc(-c5cnc6[nH]cc(C(=O)c7c(F)ccc(NS(=O)(=O)N8CC[C@@H](F)C8)c7F)c6c5)cc3)CC4)CC2)cc2c1C(=O)N(C1CCC(=O)NC1=O)C2 (some centres not stated)
DC50 [3]: ≤ 5 nM | Emax [4]: 35% | DC50 [5]: 1 nM | Emax [6]: 35%

Cc1ncc(NC(=O)N2CC[C@@H](CC(F)(F)F)C2)cc1-c1cnc(OCCN2CCN(c3ccc4c(c3)C(=O)N(C3CCC(=O)NC3=O)C4=O)CC2)c(N2CCOCC2)c1 (some centres not stated)
pIC50 [1]: 8.00 | pIC50 [2]: 6.00
